The record followed here is US11964996B2, “2-alkynylmannose derivative and application thereof” (priority 2020, dated 2024).

The target in the experiment is T1, FimH proteins (Escherichia coli, UniProt Q1R2J4).
T1 construct: endogenous in cells; host or cells: UPEC strain UTI89 (whole bacteria)
In words: hemagglutination inhibition (HAI) assay: UPEC UTI89 with guinea pig red blood cells. It counts as cell-based, uropathogenic Escherichia coli (UPEC) UTI89. To be noted: read-out: HAI EC90 (minimum concentration for inhibiting hemagglutination). The method, then:
In the present example, the mannose derivatives A1 to A107 that were prepared in Examples 1 to 12 were analyzed in hemagglutination inhibition (HAI) assays to determine inhibitory effects of the compounds on the function/activity of FimH proteins.
1. Preparation of a guinea pig red blood cell solution: an adult guinea pig was anesthetized with ethyl ether, blood was sampled from the heart, placed in an EDTA blood collection tube, and centrifuged at 2,000 rpm for 5 min, serum was removed, the sample was transferred in a centrifuge tube (15 mL), sterilized PBS was added, the sample was centrifuged at 1,500 rpm for 10 min, a supernatant was removed, the sample was transferred in a centrifuge tube (50 mL), PBS was added, the sample was centrifuged at 1,500 rpm for 10 min and repeatedly washed twice, and red blood cells were slightly aspirated into a new centrifuge tube (50 mL) to obtain a 5% guinea pig red blood cell solution.
2. Preparation of a bacteria solution: a UPEC cell line UTI89 was inoculated on a medium plate and cultured in an incubator at 37° C. overnight. Single colonies were picked and inoculated in an LB medium in a sterilized conical flask, and cultured at 37° C. and 170 r/min overnight. When an OD value at 540 nm was about 0.8 on a microplate reader, the bacterial concentration was about 10^8-10^9 cfu/mL, the bacteria solution was centrifuged at 2,000 rpm for 10 min, a supernatant was removed, and 1 mL of bacteria solution was prepared into 0.1 mL of PBS bacteria solution. […] The bacteria and the medium were uniformly mixed by shaking, and reacted in an incubator at 25° C. for about 20-40 min. When the plate was read, the wells in which complete agglutination occurred were used as 4HAU for the hemagglutination titer of the bacteria. For example, if the endpoint titer of hemagglutination is 1:256, the dilution multiple of the 4HAU antigen is 1:64 (256 divided by 4). Bacteria solutions at corresponding concentrations were prepared according to the experimental results.
3. Activity assay: a compound to be tested or a standard product was placed in a 96-well microtest plate, 50 μL of drug at an initial concentration of 200 μM was placed in the first well, and from the second well, 25 μL of PBS was added to each well to dilute the drug in proportion. The drug and the medium in the first well were mixed, 25 μL of mixed drug solution was placed in the second well, the drug solution was diluted in sequence to the last well, and 25 μL of drug solution was removed. 25 μL of bacteria solution was placed in each well of the culture plate containing the diluted drug, and cultured at 37° C. for 40 min. 25 μL of 5% guinea pig red blood cell suspension was placed in each well, and slightly uniformly mixed with the drug, and the plate was placed at 4° C. for about 1 h. When results were determined, the plate was tilted 60°, and whether the red blood cells flowed like teardrops was observed.
Mannosyl proteins are expressed on the surface of red blood cells in a guinea pig, which can bind to FimH proteins of UTI89 to cause hemagglutination. It can be observed with the naked eyes that the red blood cells form film-like agglutination at the bottom of the well, and loose red dots can be seen in the center. The FimH protein inhibitor competitively binds to FimH proteins to inhibit hemagglutination. It can be observed with the naked eyes that all the red blood cells sink and concentrate at the bottom of the well to form dense dots. The minimum concentration for inhibiting hemagglutination is expressed as an EC90 value of a compound. The final concentration of the compound in the first well is 66700 nM, the concentration in the second well is half that in the first well, the concentration in the third well is half that in the second well, and so on. […] A low EC90 value indicates high activity of a compound.
Consider `CNC(=O)c1cccc(-c2ccc(O[C@H]3O[C@H](CO)[C@@H](O)[C@H](O)[C@@]3(O)C#Cc3ccccc3)c(C)c2)c1` [Compound A1], for which the EC90 was 8 nM.
`CNC(=O)c1cccc(-c2ccc(O[C@H]3O[C@H](CO)[C@@H](O)[C@H](O)[C@@]3(O)C#CC3CC3)c(C)c2)c1` [Compound A2]: the EC90 came to 16 nM.
As for `CNC(=O)c1cccc(-c2ccc(O[C@H]3O[C@H](CO)[C@@H](O)[C@H](O)[C@@]3(O)C#Cc3cnn(C)c3)c(C)c2)c1` [Compound A3], the EC90 was 16 nM.
For the compound `Cc1cc(Br)ccc1O[C@H]1O[C@H](CO)[C@@H](O)[C@H](O)[C@@]1(O)C#Cc1ccccc1` [Compound A4], the EC90 worked out at 1040 nM.
Next, `Cc1ccccc1O[C@H]1O[C@H](CO)[C@@H](O)[C@H](O)[C@@]1(O)C#Cc1ccccc1` [Compound A5]: 520 nM; `CC(C)O[C@H]1O[C@H](CO)[C@@H](O)[C@H](O)[C@@]1(O)C#Cc1ccccc1` [Compound A6]: 1040 nM; `CCC(C)O[C@H]1O[C@H](CO)[C@@H](O)[C@H](O)[C@@]1(O)C#Cc1ccccc1` (stereo partly shown) [Compound A7]: 260 nM.
With `CC(C)C(C)O[C@H]1O[C@H](CO)[C@@H](O)[C@H](O)[C@@]1(O)C#Cc1ccccc1` (stereo partly shown) [Compound A8], the EC90 was 260 nM.
Then `CCC(CC)O[C@H]1O[C@H](CO)[C@@H](O)[C@H](O)[C@@]1(O)C#Cc1ccccc1` [Compound A9], with 130 nM; and `OC[C@H]1O[C@H](C#Cc2cnn(-c3ccc(OC(F)(F)F)cc3)c2)[C@](O)(C#CC2CC2)[C@@H](O)[C@@H]1O` [Compound A10], with 0.13 nM; and `OC[C@H]1O[C@H](OC2CCCC2)[C@](O)(C#Cc2ccccc2)[C@@H](O)[C@@H]1O` [Compound A11], with 520 nM.
Take `OC[C@H]1O[C@H](OC2CCCCC2)[C@](O)(C#Cc2ccccc2)[C@@H](O)[C@@H]1O` [Compound A12]: the EC90 came to 260 nM.
Then `OC[C@H]1O[C@H](OC2CCC(F)(F)CC2)[C@](O)(C#Cc2ccccc2)[C@@H](O)[C@@H]1O` [Compound A13], with 1040 nM; and `C#C[C@H]1O[C@H](CO)[C@@H](O)[C@H](O)[C@@]1(O)C#Cc1ccccc1` [Compound A14], with 4160 nM.
Then `CC#C[C@H]1O[C@H](CO)[C@@H](O)[C@H](O)[C@@]1(O)C#Cc1ccccc1` [Compound A15], with 520 nM.
Next, `OC[C@H]1O[C@H](C#CC2CC2)[C@](O)(C#Cc2ccccc2)[C@@H](O)[C@@H]1O` [Compound A16]: 130 nM; `OC[C@H]1O[C@H](C#Cc2ccccc2)[C@](O)(C#Cc2ccccc2)[C@@H](O)[C@@H]1O` [Compound A17]: 130 nM.
`Cc1cccc(C#C[C@@]2(O)[C@@H](C#Cc3ccccc3)O[C@H](CO)[C@@H](O)[C@@H]2O)c1` [Compound A18]: the EC90 amounted to 260 nM.
Then `CC(C)c1cccc(C#C[C@@]2(O)[C@@H](C#Cc3ccccc3)O[C@H](CO)[C@@H](O)[C@@H]2O)c1` [Compound A19], with 520 nM; and `OC[C@H]1O[C@H](C#Cc2ccccc2)[C@](O)(C#Cc2cccc(C3CC3)c2)[C@@H](O)[C@@H]1O` [Compound A20], with 260 nM.
On to `CC(C)Oc1cccc(C#C[C@@]2(O)[C@@H](C#Cc3ccccc3)O[C@H](CO)[C@@H](O)[C@@H]2O)c1` [Compound A21], for which the EC90 came to 260 nM.
Next, `CS(=O)(=O)c1cccc(C#C[C@@]2(O)[C@@H](C#Cc3ccccc3)O[C@H](CO)[C@@H](O)[C@@H]2O)c1` [Compound A22]: 130 nM; `CC(C)n1cc(C#C[C@@]2(O)[C@@H](C#Cc3ccccc3)O[C@H](CO)[C@@H](O)[C@@H]2O)ccc1=O` [Compound A23]: 260 nM; `OC[C@H]1O[C@H](C#Cc2ccccc2)[C@](O)(C#Cc2cccc3ccccc23)[C@@H](O)[C@@H]1O` [Compound A24]: 260 nM.
For the compound `Cc1cccc(C#C[C@H]2O[C@H](CO)[C@@H](O)[C@H](O)[C@@]2(O)C#Cc2ccccc2)c1` [Compound A25], the EC90 worked out at 260 nM.
